According to BindingDB's records for patent US20240025893 (Asahi Kasei Pharma, 2024):

Target: T1, Interleukin-1 receptor-associated kinase 4 (Homo sapiens, UniProt Q9NWZ3)
T1 sequence (Q9NWZ3 whole entry): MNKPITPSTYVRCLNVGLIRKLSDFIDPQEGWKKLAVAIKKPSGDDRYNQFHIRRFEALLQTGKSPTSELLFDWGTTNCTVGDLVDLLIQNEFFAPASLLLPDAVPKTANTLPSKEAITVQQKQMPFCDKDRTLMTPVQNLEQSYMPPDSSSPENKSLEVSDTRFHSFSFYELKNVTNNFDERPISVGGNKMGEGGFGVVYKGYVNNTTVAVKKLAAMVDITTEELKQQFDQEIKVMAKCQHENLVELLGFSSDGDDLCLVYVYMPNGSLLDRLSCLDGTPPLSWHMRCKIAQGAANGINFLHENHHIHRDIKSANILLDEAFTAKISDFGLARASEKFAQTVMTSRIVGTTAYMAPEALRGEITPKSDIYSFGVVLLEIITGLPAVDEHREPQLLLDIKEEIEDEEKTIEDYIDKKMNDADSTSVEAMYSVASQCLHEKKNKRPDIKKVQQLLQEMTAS
Assay: Measurement of Human IRAK-4 Inhibitory Activity
Protocol: For the measurement of the activity of the human IRAK-4 (Invitrogen, Cat. PV3362), phosphorylation of the IRAK-4 peptide substrate (biotin-KKKKRFSFKKSFKC) by the enzyme in the presence of 10 μM ATP (Sigma-Aldrich, Cat. A7699) was measured by the TR-FRET method. The enzymatic reaction was performed in a reaction buffer containing 50 mM HEPES (pH 7.2), 1 mM DTT, 0.1 mM Na3VO4, 5 mM MgCl2, 1 mM MnCl2, and 0.1% bovine serum albumin. For the measurement of the IRAK-4 inhibitory activity, a test compound was added to the reaction buffer containing 1 nM IRAK-4, 0.5 μM peptide substrate, and 10 μM ATP, and the mixture was incubated at 23° C. for 30 minutes. Then, a detection solution containing an antibody labeled with europium cryptate (0.3 μg/mL, the antibody was prepared by using the IRAK-4 peptide substrate as the antigen), streptavidin-XL665 (2 μg/mL, CisBio, Cat. 610SAXLB), 50 mM HEPES (pH 7.2), 0.1% BSA, 120 mM KF, and 66.7 mM EDTA (all the concentrations of the reagents are final concentrations) was added to terminate the reaction, and then the mixture was further incubated at 23° C. for 60 minutes.

Row | IC50 [nM] | Structure (SMILES)
1 | 3.29 | CO[C@H]1C[C@@H](C(=O)Nc2nc3ccc(-c4cnc(CO[C@H]5CCC[C@@H]5O)nc4)cc3s2)C1 [US20240025893, Example a-01-06]
2 | 1.75 | CC(C)(C)OC1CC(C(=O)Nc2cc3cc(-c4cnc(CO[C@H]5CCC[C@@H]5O)nc4)ccn3n2)C1 (some centres not stated) [US20240025893, Examplee-03-01]
